From patent US12630501B2, “Anti-fibrotic compounds and use thereof” (HADASIT MEDICAL RESEARCH SERVICES AND DEVELOPMENT LTD., priority 2019, dated 2026)

Assays:
FLIP = FLIP protein by Western blot and flow cytometry in IPF-lung myofibroblasts; assay type: cell-based, human; details: CMH 30 μM, 72 h
Experimental: Human lung myofibroblasts Differentiated fibroblasts from IPF-lungs and controls from patient lung biopsies performed for tumor diagnosis were obtained under a protocol detailed in Wallach-Dayan et al., J. Autoimmun. 59: 67-76, 2015. LL 97A (AlMy) (ATCC® CCL-191™)-IPF-lung, and LL 24 (ATCC® CCL-151™)-normal lung fibroblast cell lines were used.
FLIP protein in lung myofibroblasts Standard WB and flow cytometry were performed as described in Cohen et al., Am. J. Respir. Cell Mol. Biol. 40: 231-238, 2009.
FLIP downregulation from an OD of 1.85 to 0.49 (about 3.5-fold) was detected in WB (FIG. 4F), and a […] from a mean fluorescence intensity (MFI)=10^3 to only 10^1 was detected with flow cytometry (FIG. 4G). Thus, SIRT1-mediated Ku70-deacetylation stabilizes IPF-lung myofibroblast FLIP via Ku70/FLIP complex. This effect of CMH on Ku70 further disrupts Ku70/FLIP complex and destabilizes FLIP in IPF-lung myofibroblasts.
IPF cell line ATCC-191 (0.5×10^6), were exposed in culture (10% DMEM) to a compound of Formula 6 (1 or 3 μM) vs. 4% DMSO (vehicle) for 16 h. Ku70 immunoprecipitation with subsequent pan-acetyl (FIG. 8A) and immunoblots of Ku70 with anti-Ku70 mAb (FIG. 8B) or FLIP with anti-FLIP mAb (FIG. 8C) were measured. […] IPF-lung myofibroblasts decreased FLIP expression from an OD of 1.00 to 0.51 (about twofold, FIG. 8C).
IPF cell line ATCC-191 (0.5×10^6), were exposed in culture (10% DMEM) to a compound of Formula 12 (1 μM), vs. 4% DMSO (vehicle) for 16 h. Immunoblots of FLIP with anti-FLIP mAb were performed (FIG. 9). […] Thus, the compound of Formula 12 attenuates FLIP stabilization in IPF-lung myofibroblast.

[1] = tested on: BLM-treated C57BL/6 WT mice; test: Bleomycin-induced lung fibrosis in mice, CMH by oropharyngeal aspiration; assay type: in vivo, mouse
From the text: Animals C57BL/6 and mutant mice, male, 11-12 weeks old (Harlan Sprague Dawley, Indianapolis, IN, USA) were used. SIRT1 dominant-negative mice carry a point mutation (H355Y), Sirt1^tm2.1Mcby (Sirt1^y/y, RBRC05324, RIKEN Bio Resource Center, Japan) that ablates SIRT1 enzymatic activity, described in Gabay et al., Arthritis Rheum. 65: 159-166, 2013; and Seifert et al., FASEB J. 26: 555-566, 2012. Mice were maintained under specific pathogen-free conditions with adherence to institutional guidelines for the care and use of laboratory animals. Chimeric mice with SIRT1-deficient mice and WT hematopoietic cells were generated as described in Golan-Gerstl et al., Am. J. Respir Cell Mol. Biol. 36: 270-275, 2007.
Oropharyngeal aspiration (OA) and induction of lung fibrosis in mice Oropharyngeal aspiration of BLM (OA-BLM) was performed as detailed in Golan-Gerstl et al., Am. J. Respir. Cell Mol. Biol. 36: 270-275, 2007. Lung fibrosis was assessed via semi-quantitative morphological index (Wallach-Dayan et al., PNAS USA 104: 20460-20465, 2007). Lung collagen was measured using a Sircol Collagen Assay kit (Biocolor, Belfast, Northern Ireland), and standard protocol of trichrome staining. Isolation of mouse lung myofibroblasts Myofibroblast isolation and culture was performed as described in Golan-Gerstl et al., Am. J. Respir. Cell Mol. Biol. 36: 270-275, 2007; and Wallach-Dayan et al., PNAS USA 104: 20460-20465, 2007.
Immunohistochemistry (IHC) staining of lung tissue sections was performed as described in Golan-Gerstl et al., Am. J. Respir Cell Mol. Biol. 36: 270-275, 2007; and Wallach-Dayan et al., PNAS USA 104: 20460-20465, 2007.
CMH (30 μM) or control vehicle 4% DMSO were administered into WT mice by a second OA on day 6 of OA-BLM (0.05 mU), or control-saline (FIG. 6A). Similar to SIRT1^y/y mice, BLM-treated mice and control saline-treated mice (FIG. 6B) that were exposed to CMH vs. vehicle alone, had low SIRT1 and FLIP expression in lung sections. Myofibroblasts isolated from lungs of BLM-treated mice had decreased Ku70 binding to SIRT1 from 1.2 to 0.6 (FIG. 6C), increased Ku70 acetylation from an OD of 0.1 to 0.91 (FIG. 6D), and decreased Ku70/FLIP complex from an OD of 2.43 to 1.55 (FIG. 6E). Compared to vehicle, CMH-treated mice reduced H&E and collagen-trichrome staining (FIG. 6F, upper and lower panels, respectively), SMI grade (average SMI from 2 to 1.1, FIG. 6G), and collagen in Sircol assay (from 200 μg to only 50 μg, FIG. 6H). Thus, In vivo inhibition of SIRT1 activity, FLIP expression, and lung fibrosis were detected in CMH-BLM-treated mice and attenuation of deacetylation activity on Ku70, a decrease in Ku70/FLIP complex, and FLIP expression levels were detected in myofibroblasts isolated from lungs of CMH-BLM-treated mice. SIRT1-mediated Ku70-deacetylation may therefore stabilize FLIP via Ku70/FLIP complex in lung myofibroblasts promoting fibrosis, which can be inhibited by CMH.

[2] = CMH 30 μM by OA on day 6 of OA-BLM, vs. vehicle

Q: Which “FLIP downregulation in WB” value (FLIP) does the source give for `Cc1cc(Cl)ccc1OCCCC(=O)NO` [CMH, 4-(4-chloro-2-methylphenoxy)-N-hydroxybutanamide] here?
A: about 3.5 fold

Q: And the “FLIP reduction by flow cytometry” value (FLIP)?
A: 60%

Q: What about the “FLIP OD in WB” value (FLIP; from 1.85) of the same molecule?
A: 0.49 OD

Q: And the “FLIP mean fluorescence intensity (MFI), flow cytometry” value (FLIP; from 10^3)?
A: 10^1

Q: And the “H&E and collagen-trichrome staining of lung tissue sections” value ([1]; CMH 30 μM OA day 6, day 14 post BLM, compared to vehicle)?
A: reduced

Q: What about the “Collagen in Sircol assay” value ([1]; CMH 30 μM OA day 6, day 14 post BLM, vehicle 200 μg) of the same molecule?
A: 50 µg

Q: And the “Average SMI grade (semi-quantitative morphological index)” value ([1]; CMH 30 μM OA day 6, day 14 post BLM, vehicle 2)?
A: 1.1

Q: And the “FLIP expression in lung sections (IHC)” value [1, 2]?
A: low

Q: And the “SIRT1 expression in lung sections (IHC)” value [1, 2]?
A: low
